Measurements published in US20250011829A1, “MEMBRANE FOR MICROBIOLOGICAL ANALYSIS” (Sartorius Stedim Biotech GmbH, priority 2021, published 2025).

Key:
[1] = ILC; for adsorbed amount of surfactant on the membrane: surfactant concentration 0.1 g/L
[2] = Evaluation of wettability by filtration with activated carbon; assay type: physicochemical; settings: membrane filters impregnated with 0.1 wt % surfactant; white spots indicate inhomogeneous wetting
Procedure: The wetting ability of membrane filters obtained in Example 1, which were impregnated with 0.1 wt % of each of Tween 80, Triton X100, Brij 35, SDS, and SDBS, was evaluated after filtration with activated carbon. For this purpose, the pieces with a diameter of 4.7 cm were placed with the application side of the membrane pointing upwards on a frit of a filtration unit before cups are attached thereon. All valves of the filtration bar are closed. 0.2 g of activated carbon is suspended in 1 L of RO water and 100 ml of filtration volume is measured after vigorous stirring and filled into the filtration cups. The pump is then switched on and the valves are opened. After filtration, the black filter pieces are placed on a white sheet of paper and photographed. White spots indicate an inhomogeneous wetting pattern (FIG. 1).

L. anisa WDCM 00106 = assay type: cell-based, Legionella anisa

Row | Substance | adsorbed amount of surfactant on the membrane [1] [μg/cm^2] | adsorbed amount relative to SDBS ([1]; surfactant concentration 1.0 g/L) | wetting pattern after filtration with activated carbon [2] | colony forming units of L. anisa (L. anisa WDCM 00106)
1 | 4-(1,1,3,3-tetramethylbutyl)-phenyl-polyethylene glycol [Triton X-100] | 51.5 | two times higher compared to SDBS |  | 
2 | polyoxyethylene(x)-sorbitan monooleate (x=80) [Tween 80] |  |  | white wetting spots were visible | 
3 | sodium dodecyl benzyl sulfonate [SDBS] | 8.73 |  |  | sharp decrease in colony forming units
